Data reported in PMC9864536, “Inter-Species Redox Coupling by Flavin Reductases and FMN-Dependent Two-Component Monooxygenases Undertaking Nucleophilic Baeyer–Villiger Biooxygenations” (Microorganisms, 2022).

Legend:
3,6-DKCMO = target: T1, 3,6-DKCMO (Pseudomonas putida, UniProt D7UER1); experiment: […] min biotransformation with FMNH2 supplied by purified flavin reductases, GC; type: biochemical; details: FMNH2 cosubstrate generated in situ from FMN and NADH, 1 mM ketone, pH 7.6, 25 °C
T1 construct: gene camE36; natively purified biooxygenating subunit, untagged
T1 sequence (D7UER1 1-378): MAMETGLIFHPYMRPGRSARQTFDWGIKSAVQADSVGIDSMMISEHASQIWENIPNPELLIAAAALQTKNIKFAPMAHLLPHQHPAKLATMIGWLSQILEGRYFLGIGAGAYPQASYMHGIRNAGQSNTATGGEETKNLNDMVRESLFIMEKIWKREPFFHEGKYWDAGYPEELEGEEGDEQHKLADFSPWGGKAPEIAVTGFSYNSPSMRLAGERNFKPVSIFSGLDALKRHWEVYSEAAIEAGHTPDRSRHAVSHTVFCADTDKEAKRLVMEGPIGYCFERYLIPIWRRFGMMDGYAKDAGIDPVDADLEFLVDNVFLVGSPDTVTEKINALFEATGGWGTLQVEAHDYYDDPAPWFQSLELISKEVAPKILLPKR

LuxAB luciferase = target: T2, LuxAB luciferase (Aliivibrio fischeri, UniProt P19907); experiment: as above; type: biochemical; details: FMNH2 cosubstrate generated in situ from FMN and NADH, 1 mM ketone, pH 7.6, 25 °C
T2 construct: gene luxA; natively purified LuxAB luciferase, untagged; with Alkanal monooxygenase beta chain
T2 sequence (P19907 1-354): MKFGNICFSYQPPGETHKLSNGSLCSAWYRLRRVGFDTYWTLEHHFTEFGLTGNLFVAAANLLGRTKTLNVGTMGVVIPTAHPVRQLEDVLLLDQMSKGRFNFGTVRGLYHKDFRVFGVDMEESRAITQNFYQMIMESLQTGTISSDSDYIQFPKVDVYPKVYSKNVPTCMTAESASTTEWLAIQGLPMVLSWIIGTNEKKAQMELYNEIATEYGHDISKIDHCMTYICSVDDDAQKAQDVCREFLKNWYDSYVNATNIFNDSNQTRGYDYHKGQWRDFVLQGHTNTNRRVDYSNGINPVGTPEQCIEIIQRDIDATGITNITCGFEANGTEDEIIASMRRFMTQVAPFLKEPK
T2 sequence (P19908 1-326 partner): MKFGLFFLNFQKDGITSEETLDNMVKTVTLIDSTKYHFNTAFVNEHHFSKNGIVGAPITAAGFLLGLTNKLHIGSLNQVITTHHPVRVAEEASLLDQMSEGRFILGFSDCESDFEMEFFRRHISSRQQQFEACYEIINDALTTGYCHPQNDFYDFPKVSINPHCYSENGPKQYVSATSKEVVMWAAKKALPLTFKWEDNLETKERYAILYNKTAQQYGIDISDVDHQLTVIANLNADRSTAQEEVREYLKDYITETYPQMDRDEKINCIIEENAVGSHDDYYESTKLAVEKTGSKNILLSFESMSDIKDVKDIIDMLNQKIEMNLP

Frp1 = experiment: initial rate of FMN reduction by NADH at […] nm, single-enzyme, Michaelis-Menten; type: biochemical, Pseudomonas putida; details: co-substrate NADH, anaerobic; single-enzyme assay (S); read-out: Apparent KmFMN
Frp2 = experiment: as above; type: biochemical, Pseudomonas putida; details: co-substrate NADH, anaerobic; single-enzyme assay (S); read-out: Apparent KmFMN
purified protein = substrate: Cc1cc2nc3c(=O)[nH]c(=O)nc-3n(C[C@H](O)[C@H](O)[C@H](O)COP(=O)(O)O)c2cc1C; experiment: purified protein; type: biochemical, Aliivibrio fischeri; details: co-substrate NADH, anaerobic; single-enzyme assay (S)

## Cc1cc2c(cc1C)N(C[C@H](O)[C@H](O)[C@H](O)COP(=O)(O)O)c1[nH]c(=O)[nH]c(=O)c1N2 [FMNH2]
3,6-DKCMO
  120 min biotransformation with FMNH2 supplied by purified flavin reductases, GC: can biooxygenate the bicyclic ketone by sourcing the requisite FMNH2 cosubstrate
LuxAB luciferase
  120 min biotransformation with FMNH2 supplied by purified flavin reductases, GC: can biooxygenate the bicyclic ketone by sourcing the requisite FMNH2 cosubstrate

## Cc1cc2nc3c(=O)[nH]c(=O)nc-3n(C[C@H](O)[C@H](O)[C@H](O)COP(=O)(O)O)c2cc1C [FMN]
Frp1
  Km: 2.5 µM
Frp2
  Km: 4.2 µM

B1: FRGVf (Aliivibrio fischeri) (protein)
chain: THPIIHDLENRYTSKKYDPSKKVSQEDLAVLLEALRLSASSINSQPWKFIVIESDAAKQRMHDSFANMHQFNQPHIKACSHVILFANKLSYTRDDYDVVLSKAVADKRITEEQKEAAFASFKFVELNCDENGEHKAWTKPQAYLALGNALHTLARLNIDSTTMEGIDPELLSEIFADELKGYECHVALAIGYHHPSEDYNASLPKSRKAFEDVITIL
Purified protein
  Km: 4.3 µM

B2: FreVf (Aliivibrio fischeri) (protein)
chain: MPINCKVKSIEPLACNTFRILLHPEQPVAFKAGQYLTVVMGEKDKRPFSIASSPCRHEGEIELHIGAAEHNAYAGEVVESMKSALETGGDILIDAPHGEAWIREDSDRSMLLIAGGTGFSYVRSILDHCISQQIQKPIYLYWGGRDECQLYAKAELESIAQAHSHITFVPVVEKSEGWTGKTGNVLEAVKADFNSLADMDIYIAGRFEMAGAAREQFTTEKQAKKEQLFGDAFAFI
Purified protein
  Km: 2.5 µM
